From article PMC11271247 (SLAS discovery : advancing life sciences R & D, 2019)

Key:
[1] = system: PANC/NIH microtissues (PANC-1 pancreatic cancer cells + NIH3T3 fibroblasts); type: cell-based, human; conditions: read-out: IC50 ATP; PANC/NIH spheroids, ATP content at treatment day 7
[2] = system: SKOV/NIH microtissues (SKOV-3 ovarian cancer cells + NIH3T3 fibroblasts); type: cell-based, human; conditions: read-out: IC50 ATP; SKOV/NIH spheroids, ATP content at treatment day 7
[3] = system: HEY/NIH microtissues (HEY-GFP ovarian cancer cells + NIH3T3 fibroblasts); type: cell-based, human; conditions: read-out: IC50 ATP; HEY/NIH spheroids, ATP content at treatment day 7
[4] = system: NIH3T3 fibroblasts within HEY/NIH microtissues; conditions: day 3
[5] = system: HEY/NIH3T3 microtissues; experiment: Microtissue size over time, HEY/NIH microtissues; type: cell-based, human; conditions: HEY/NIH3T3, % maximal response at 20 μM
[6] = system: NIH3T3 fibroblasts within SKOV/NIH microtissues
[7] = system: NIH3T3 fibroblasts within PANC/NIH microtissues; type: cell-based, mouse; conditions: PANC1/NIH, day 3 (acute toxicity)

Row | SMILES | IC50 [1] [µM] | IC50 [2] [µM] | IC50 [3] [µM] | also measured
1 | C=CC(=O)Nc1cc2c(Nc3ccc(F)c(Cl)c3)ncnc2cc1C#CC(C)(C)N1CCN(C)CC1 [AV-412] | 2.44 | 0.08 | 1.29 | –
2 | COC(=O)[C@]12CCC(C)(C)C[C@H]1[C@H]1C(=O)C=C3[C@@]4(C)C=C(C#N)C(=O)C(C)(C)[C@@H]4CC[C@@]3(C)[C@]1(C)CC2 [Bardoxolone methyl] | 1.33 | – | – | –
3 | CC(C)C[C@H](NC(=O)[C@H](CCc1ccccc1)NC(=O)CN1CCOCC1)C(=O)N[C@@H](Cc1ccccc1)C(=O)N[C@@H](CC(C)C)C(=O)[C@@]1(C)CO1 [Carfilzomib] | – | – | – | therapeutic window, ratio of adverse to therapeutic effect [4]: 578 fold
4 | O=C1C(Cl)=C(NCCN2CCOCC2)C(=O)c2ncccc21 [DA-3003-1] | – | – | 7.36 | –
5 | Cc1nc(Nc2ncc(C(=O)Nc3c(C)cccc3Cl)s2)cc(N2CCN(CCO)CC2)n1 [Dasatinib] | – | – | – | effect on tumor size early in the treatment [5]: reduce tumor size
6 | CNC(=O)[C@H](Cc1c[nH]c2ccccc12)NC(=O)[C@@H](CC(=O)NO)CC(C)C [GM-6001] | 9.61 | 3.86 | – | –
7 | CC1=C(C(=O)Nc2cc3cn[nH]c3cc2F)C(c2ccc(Cl)cc2F)N=C(c2ccnc(Cl)c2)N1 (centres unmarked) [GSK-25] | 9.38 | 4.83 | 6.1 | –
8 | CN(C)CCCN=c1c2ccccc2n(C)c2[nH]c(=O)n(C)c(=O)c12 [HLI-373989] | – | – | 3.75 | –
9 | CSc1cccc(Nc2ncc3cc(-c4c(Cl)cccc4Cl)c(=O)n(C)c3n2)c1 [PD-173955] | – | – | 0.479 | –
10 | Cc1ccc(/C=N/NC(=O)c2ccccc2Oc2ccccc2)o1 [PNU-74654] | – | 2.83 | – | –
11 | C/C=C1\NC(=O)[C@H]2CSSCC/C=C/[C@H](CC(=O)N[C@H](C(C)C)C(=O)N2)OC(=O)[C@H](C(C)C)NC1=O [Romidepsin] | – | – | – | viability of the stromal cells [6]: significantly lowered the viability of the stromal cells
12 | O=C(O)C1CCCN(CCC=C(c2ccccc2)c2ccccc2)C1 (centres unmarked) [SK&F-89976A] | – | – | 15.3 | –
13 | Cc1ccc(-c2ncn(-c3ccc(Nc4nccc(-c5cccc(N6CCOCC6)c5)n4)cc3)n2)cn1 [SR-3306] | 0.022 | 0.013 | 0.058 | –
14 | Cn1c(=O)c(F)c(Nc2ccc(I)cc2F)c2c(=O)n(C[C@@H](O)CO)cnc21 [TAK-733] | – | – | – | effect on tumor size early in the treatment [5]: reduce tumor size
15 | Nc1ccc(-c2ccc3ncc4ccc(=O)n(-c5cccc(C(F)(F)F)c5)c4c3c2)cn1 [Torin-2] | 0.001 | 0.002 | 0.027 | therapeutic window, ratio of adverse to therapeutic effect [7]: 5,524 fold
16 | c1cncc(CN2CCC(n3ncc4c(N5CCOCC5)nc(-c5ccc6[nH]ccc6c5)nc43)CC2)c1 [WAY-600] | 7.38 | 0.507 | 1.68 | effect on tumor size early in the treatment [5]: reduce tumor size
